Measurements from PubChem BioAssay (NCI).
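48-hour exposure; five concentrations; linearly interpolated endpoints. GI50 = concentration required for 50% inhibition of growth. TGI: total growth inhibition.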

Assays:
Assay in all cases: NCI tumour cell line growth inhibition, 48 h; in the data active = GI50 below about 0.43 µM; inactive = the rest
CAKI-1 renal = system: CAKI-1 renal
COLO 205 colon = system: COLO 205 colon
HL-60(TB) leukemia = system: HL-60(TB) leukemia
SF-268 CNS = system: SF-268 CNS
A549 NSCLC = system: A549 NSCLC
SF-539 CNS = system: SF-539 CNS
SK-OV-3 ovarian = system: SK-OV-3 ovarian
ACHN renal = system: ACHN renal
NCI-H226 lung = system: NCI-H226 lung
UACC-62 melanoma = system: UACC-62 melanoma
UO-31 renal = system: UO-31 renal
SN12C renal = system: SN12C renal
SW-620 colon = system: SW-620 colon
HOP-62 NSCLC = system: HOP-62 NSCLC
NCI/ADR-RES ovarian = system: NCI/ADR-RES ovarian
OVCAR-3 ovarian = system: OVCAR-3 ovarian
NCI-H460 lung = system: NCI-H460 lung
T-47D breast = system: T-47D breast
HCT-15 colon = system: HCT-15 colon
SK-MEL-2 melanoma = system: SK-MEL-2 melanoma
EKVX NSCLC = system: EKVX NSCLC
RPMI-8226 leukemia = system: RPMI-8226 leukemia
M14 melanoma = system: M14 melanoma
UACC-257 melanoma = system: UACC-257 melanoma
BT-549 breast = system: BT-549 breast
MOLT-4 leukemia = system: MOLT-4 leukemia
PC-3 prostate = system: PC-3 prostate
SNB-19 CNS = system: SNB-19 CNS
CCRF-CEM leukemia = system: CCRF-CEM leukemia
HS 578T breast = system: HS 578T breast
LOX IMVI melanoma = system: LOX IMVI melanoma
HOP-92 NSCLC = system: HOP-92 NSCLC
HT29 colon = system: HT29 colon
DU-145 prostate = system: DU-145 prostate
IGROV1 ovarian = system: IGROV1 ovarian
KM12 colon = system: KM12 colon
MDA-MB-435 = system: MDA-MB-435
A498 renal = system: A498 renal
K-562 leukemia = system: K-562 leukemia
MCF7 breast = system: MCF7 breast
OVCAR-4 ovarian = system: OVCAR-4 ovarian
NCI-H23 lung = system: NCI-H23 lung
OVCAR-8 ovarian = system: OVCAR-8 ovarian
SF-295 CNS = system: SF-295 CNS
TK-10 renal = system: TK-10 renal
OVCAR-5 ovarian = system: OVCAR-5 ovarian
RXF 393 renal = system: RXF 393 renal
786-0 renal = system: 786-0 renal
SR leukemia = system: SR leukemia
SNB-75 CNS = system: SNB-75 CNS
SK-MEL-28 melanoma = system: SK-MEL-28 melanoma
MDA-MB-231 breast = system: MDA-MB-231 breast
SK-MEL-5 melanoma = system: SK-MEL-5 melanoma
U251 CNS = system: U251 CNS
HCC-2998 colon = system: HCC-2998 colon
HCT-116 colon = system: HCT-116 colon
NCI-H522 lung = system: NCI-H522 lung
MALME-3M melanoma = system: MALME-3M melanoma

COc1ccc([C@@H]2[C@@H](O)C(=O)N2c2cc(OC)c(OC)c(OC)c2)cc1
active: GI50 (CAKI-1 renal) 48.6 nM | GI50 (COLO 205 colon) 69.6 nM | GI50 (HL-60(TB) leukemia) 30.9 nM | GI50 (SF-268 CNS) 214 nM | GI50 (A549 NSCLC) 92.4 nM | GI50 (SF-539 CNS) 30.5 nM | GI50 (SK-OV-3 ovarian) 147 nM | GI50 (ACHN renal) 72.3 nM | GI50 (UACC-62 melanoma) 41.7 nM | GI50 (UO-31 renal) 65.9 nM | GI50 (SN12C renal) 124 nM | GI50 (SW-620 colon) 50.4 nM | GI50 (HOP-62 NSCLC) 75.8 nM | GI50 (NCI/ADR-RES ovarian) 72.5 nM | GI50 (OVCAR-3 ovarian) 34.5 nM | GI50 (NCI-H460 lung) 59.3 nM | GI50 (HCT-15 colon) 72.7 nM | GI50 (SK-MEL-2 melanoma) 135 nM | GI50 (EKVX NSCLC) 79.9 nM | GI50 (RPMI-8226 leukemia) 44.8 nM | GI50 (M14 melanoma) 42.3 nM | GI50 (BT-549 breast) 94.1 nM | GI50 (MOLT-4 leukemia) 101 nM | GI50 (PC-3 prostate) 85.6 nM | GI50 (SNB-19 CNS) 120 nM | GI50 (CCRF-CEM leukemia) 41.3 nM | GI50 (HS 578T breast) 41 nM | GI50 (LOX IMVI melanoma) 47.3 nM | GI50 (HT29 colon) 32.9 nM | GI50 (DU-145 prostate) 76.1 nM | GI50 (IGROV1 ovarian) 57.7 nM | GI50 (KM12 colon) 41.3 nM | GI50 (MDA-MB-435) 28.1 nM | GI50 (K-562 leukemia) 33.9 nM | GI50 (MCF7 breast) 35.1 nM | GI50 (NCI-H23 lung) 63 nM | GI50 (OVCAR-8 ovarian) 37.6 nM | GI50 (SF-295 CNS) 37.8 nM | GI50 (OVCAR-5 ovarian) 61.3 nM | GI50 (RXF 393 renal) 26 nM | GI50 (786-0 renal) 91.6 nM | GI50 (SR leukemia) 34.3 nM | GI50 (SNB-75 CNS) 46.5 nM | GI50 (MDA-MB-231 breast) 55.8 nM | GI50 (SK-MEL-5 melanoma) 45.2 nM | GI50 (U251 CNS) 40.4 nM | GI50 (HCC-2998 colon) 98.2 nM | GI50 (HCT-116 colon) 38.6 nM | GI50 (NCI-H522 lung) 24.8 nM | GI50 (MALME-3M melanoma) 105 nM
2430 nM: TGI (BT-549 breast)
76.7 nM: TGI (NCI-H522 lung)
10000 nM: TGI (HCC-2998 colon)
> 100000 nM: TGI (SF-268 CNS) | TGI (A549 NSCLC) | TGI (SF-539 CNS) | TGI (ACHN renal) | TGI (NCI-H226 lung) | TGI (UACC-62 melanoma) | TGI (UO-31 renal) | TGI (SN12C renal) | TGI (SW-620 colon) | TGI (HOP-62 NSCLC) | TGI (NCI/ADR-RES ovarian) | TGI (NCI-H460 lung) | TGI (T-47D breast) | TGI (HCT-15 colon) | TGI (SK-MEL-2 melanoma) | TGI (EKVX NSCLC) | TGI (M14 melanoma) | TGI (UACC-257 melanoma) | TGI (MOLT-4 leukemia) | TGI (PC-3 prostate) | TGI (SNB-19 CNS) | TGI (HS 578T breast) | TGI (LOX IMVI melanoma) | TGI (HOP-92 NSCLC) | TGI (DU-145 prostate) | TGI (IGROV1 ovarian) | TGI (KM12 colon) | TGI (K-562 leukemia) | TGI (MCF7 breast) | TGI (OVCAR-4 ovarian) | TGI (NCI-H23 lung) | TGI (OVCAR-8 ovarian) | TGI (SF-295 CNS) | TGI (TK-10 renal) | TGI (OVCAR-5 ovarian) | TGI (RXF 393 renal) | TGI (786-0 renal) | TGI (SR leukemia) | TGI (SNB-75 CNS) | TGI (SK-MEL-28 melanoma) | TGI (MDA-MB-231 breast) | TGI (U251 CNS) | TGI (HCT-116 colon) | TGI (MALME-3M melanoma)
83.7 nM: TGI (MDA-MB-435)
175 nM: TGI (HT29 colon)
232 nM: TGI (SK-MEL-5 melanoma)
327 nM: TGI (OVCAR-3 ovarian)
> 57100 nM: TGI (SK-OV-3 ovarian)
> 88700 nM: TGI (A498 renal)
5610 nM: TGI (RPMI-8226 leukemia)
173 nM: TGI (COLO 205 colon)
inactive: GI50 (NCI-H226 lung) 525 nM | GI50 (T-47D breast) 19000 nM | GI50 (UACC-257 melanoma) 5350 nM | GI50 (HOP-92 NSCLC) > 44600 nM | GI50 (A498 renal) 11300 nM | GI50 (OVCAR-4 ovarian) 5860 nM | GI50 (TK-10 renal) 32900 nM
> 33800 nM: TGI (CAKI-1 renal)
126 nM: TGI (HL-60(TB) leukemia)
